Key:
Assay in all cases: relative viability (nuclei count vs DMSO), 5 days (fraction); higher = more cells survive
Etoposide + Foretinib = compound: COc1cc([C@@H]2c3cc4c(cc3[C@@H](O[C@@H]3O[C@@H]5CO[C@@H](C)O[C@H]5[C@H](O)[C@H]3O)[C@H]3COC(=O)[C@H]23)OCO4)cc(OC)c1O [Etoposide] + COc1cc2c(Oc3ccc(NC(=O)C4(C(=O)Nc5ccc(F)cc5)CC4)cc3F)ccnc2cc1OCCCN1CCOCC1 [Foretinib] (partner 0.25 µM)
Method in brief: (§1)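 A single step with final 0.05% Triton X-100, 1% formaldehyde and 1 ug/ml Hoechst fixed the cells and stained nuclei 5 days after treatment. Lung cancer cell lines in 1536-well plates had been treated by pin tool the day after seeding with one drug alone or a fixed anchor-drug dose plus five library-drug doses (not always all listed) in √10 steps, and nuclei were counted on 4× images. Relative viability is the ratio of nuclei in treated wells to nuclei in vehicle wells, taken as the median of duplicate plates.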

Bleomycin + Tozasertib = compound: CC1=C(N=C(N=C1N)[C@H](CC(=O)N)NC[C@@H](C(=O)N)N)C(=O)N[C@@H]([C@H](C2=CN=CN2)OC3C(C(C(C(O3)CO)O)O)OC4C(C(C(C(O4)CO)O)OC(=O)N)O)C(=O)N[C@H](C)[C@H]([C@H](C)C(=O)N[C@@H]([C@@H](C)O)C(=O)NCCC5=NC(=CS5)C6=NC(=CS6)C(=O)NCCC[S+](C)C)O [Bleomycin] + Cc1cc(Nc2cc(N3CCN(C)CC3)nc(Sc3ccc(NC(=O)C4CC4)cc3)n2)n[nH]1 [Tozasertib] (partner 0.1 µM); settings: main component drawn
Method in brief: as §1

Bleomycin + Linsitinib = compound: CC1=C(N=C(N=C1N)[C@H](CC(=O)N)NC[C@@H](C(=O)N)N)C(=O)N[C@@H]([C@H](C2=CN=CN2)OC3C(C(C(C(O3)CO)O)O)OC4C(C(C(C(O4)CO)O)OC(=O)N)O)C(=O)N[C@H](C)[C@H]([C@H](C)C(=O)N[C@@H]([C@@H](C)O)C(=O)NCCC5=NC(=CS5)C6=NC(=CS6)C(=O)NCCC[S+](C)C)O [Bleomycin] + C[C@]1(O)C[C@@H](c2nc(-c3ccc4ccc(-c5ccccc5)nc4c3)c3c(N)nccn32)C1 [Linsitinib] (partner 1 µM); settings: main component drawn
Method in brief: as §1

Etoposide + Alpelisib = compound: COc1cc([C@@H]2c3cc4c(cc3[C@@H](O[C@@H]3O[C@@H]5CO[C@@H](C)O[C@H]5[C@H](O)[C@H]3O)[C@H]3COC(=O)[C@H]23)OCO4)cc(OC)c1O [Etoposide] + Cc1nc(NC(=O)N2CCC[C@H]2C(N)=O)sc1-c1ccnc(C(C)(C)C(F)(F)F)c1 [Alpelisib] (partner 2 µM)
Method in brief: as §1

For UMC-11, which relative viability (Etoposide + Foretinib; first compound 0.01 µM) is on record?
The relative viability was 1.1.

And the relative viability (Etoposide + Foretinib; first compound 0.03162 µM)?
Its relative viability is 1.17.

And the relative viability (Etoposide + Foretinib; first compound 0.1 µM)?
The relative viability was 0.928.

What about the relative viability (Etoposide + Foretinib; first compound 0.3162 µM) of the same cell line?
Its relative viability is 0.566.

And the relative viability (Etoposide + Foretinib; first compound 1 µM)?
The relative viability was 0.322.

What about the relative viability (Bleomycin + Tozasertib; first compound 0.01 µM) of the same cell line?
Its relative viability is 0.185.

What about the relative viability (Bleomycin + Tozasertib; first compound 0.03162 µM) of the same cell line?
Its relative viability is 0.196.

And the relative viability (Bleomycin + Tozasertib; first compound 0.1 µM)?
Its relative viability is 0.208.

And the relative viability (Bleomycin + Tozasertib; first compound 0.3162 µM)?
Its relative viability is 0.203.

And the relative viability (Bleomycin + Tozasertib; first compound 1 µM)?
The relative viability was 0.18.

And the relative viability (Bleomycin + Linsitinib; first compound 0.01 µM)?
Its relative viability is 0.975.

And the relative viability (Bleomycin + Linsitinib; first compound 0.03162 µM)?
The relative viability was 0.91.

And the relative viability (Bleomycin + Linsitinib; first compound 0.1 µM)?
Its relative viability is 0.863.

And the relative viability (Bleomycin + Linsitinib; first compound 0.3162 µM)?
Its relative viability is 0.647.

What about the relative viability (Bleomycin + Linsitinib; first compound 1 µM) of the same cell line?
The relative viability was 0.498.

What about the relative viability (Etoposide + Alpelisib; first compound 0.01 µM) of the same cell line?
The relative viability was 0.943.

What about the relative viability (Etoposide + Alpelisib; first compound 0.03162 µM) of the same cell line?
Its relative viability is 1.11.

And the relative viability (Etoposide + Alpelisib; first compound 0.3162 µM)?
Its relative viability is 0.352.

And the relative viability (Etoposide + Alpelisib; first compound 1 µM)?
Its relative viability is 0.222.

Reference: the supplement of paper PMC10307832
